Test results taken from article PMC11152041, “Tricarbonyl rhenium(I) complexes with 8-hydroxyquinolines: structural, chemical, antibacterial, and anticancer characteristics” (RSC Advances, 2024).
Where two headings read alike, the source gives them in different places.

Legend:
E. coli ATCC25922 = test: Broth microdilution MIC/MBC (ISO 20776-1); assay type: cell-based, Escherichia coli; conditions: for MBC: E. coli ATCC25922, >99.99% reduction of growth; for MIC: E. coli ATCC25922, MH II broth, 35 °C, 24 h
Method: (§1) Bacterial strains and cell lines were obtained from the American Type Culture Collection (ATCC).[59] […] Antimicrobial activity was tested in Müeller Hinton (MH) II broth (Becton Dickinson). For anticancer activity assay, the following reagents from Merk were used: 3-(4,5-dimethylthiazol-2-yl)-2,5-diphenyltetrazolium bromide (MTT), sodium dodecyl sulfate (SDS) and HCl. The solubilized formazan product was spectrophotometrically quantified in a Power Wave XS (Bio Tek, Winooski, VT, USA) microplate reader. The HL-60 and PC-3 cells were grown in RPMI-1640 medium with stable glutamine (Biowest) supplemented with 10% (v/v) of heat-inactivated fetal bovine serum (FBS, Biowest) and 1% (v/v) of antibiotic–antimycotic solution (Biowest). The SKOV-3 cells were grown in McCoy's 5A medium with L-glutamine (Biowest) supplemented with 10% (v/v) heat-inactivated FBS, and 1% (v/v) antibiotic–antimycotic solution. The MCF-7 cells were grown in Eagle's MEM (Minimal Essential Medium) medium with stable glutamine (Biowest), supplemented with 10% (v/v) heat-inactivated FBS 1% (v/v) MEM non-essential amino acids (Biowest), 1% (v/v) antibiotic–antimycotic solution, and 1 mM sodium pyruvate (Merck). The MCF-10A cells were grown in Ham's F-12K (Kaighn's) Medium with stable glutamine (Gibco) supplemented with 5% (v/v) heat-inactivated FBS, 1% (v/v) MEM non-essential amino acids, 1% (v/v) antibiotic–antimycotic solution, 5 μg mL^−1 insulin, 0.04 μg mL^−1 hydrocortisone (Merck), and 15 ng mL^−1 human Epidermal Growth Factor (hEGF, PeproTech).
(§2) The in vitro antibacterial activity was determined according to ISO 20776-1.[88] Among the tested microorganisms were Gram-negative rods, E. coli ATCC25922 and P. aeruginosa ATCC27853, and Gram-positive cocci, S. aureus ATCC29213 and E. faecalis ATCC29212. The selected bacterial species represented the most common etiologic agents of human infections and are used for quality control of antimicrobial susceptibility testing.[89] The test procedure included the determination of MICs and MBCs of complexes and their free ligands. MIC and MBC determinations of ciprofloxacin, as the reference antibiotic, were also performed. All compounds were dissolved in DMSO to reach the maximum 512 mg L^−1 concentration. […] The assay consisted of preparing 2-fold dilutions of the substances in a liquid growth medium MH II and inoculating them with a standardized suspension of microorganisms at a McFarland density of 0.5 (≈10^8 CFU mL^−1). The culture plates were incubated at 35 °C for 24 h. The lowest concentration of the compound inhibiting visible bacterial growth was specified as MIC, and the concentration that reduced bacterial growth by >99.99% after counting live bacteria on the plates compared to the positive control was defined as MBC.

P. aeruginosa ATCC27853 = test: Broth microdilution MIC/MBC (ISO 20776-1); assay type: cell-based, Pseudomonas aeruginosa; conditions: for MBC: P. aeruginosa ATCC27853, >99.99% reduction of growth; for MIC: P. aeruginosa ATCC27853, MH II broth, 35 °C, 24 h
Method: as §1, §2

S. aureus ATCC29213 = test: Broth microdilution MIC/MBC (ISO 20776-1); assay type: cell-based, Staphylococcus aureus; conditions: for MBC: S. aureus ATCC29213, >99.99% reduction of growth; for MIC: S. aureus ATCC29213, MH II broth, 35 °C, 24 h
Method: as §1, §2

E. faecalis ATCC29212 = test: Broth microdilution MIC/MBC (ISO 20776-1); assay type: cell-based, Enterococcus faecalis; conditions: for MBC: E. faecalis ATCC29212, >99.99% reduction of growth; for MIC: E. faecalis ATCC29212, MH II broth, 35 °C, 24 h
Method: as §1, §2

HL-60 cells = test: MTT cytotoxicity assay; assay type: cell-based, human; conditions: MTT, read-out: IC50 ± SD
Method: (§3) The cytotoxicities for studied compounds were evaluated against leukemia cells (HL-60), as well as ovarian (SKOV-3), prostate (PC-3), and breast (MCF-7) cancer cell lines. The potential selectivity of these compounds towards cancer cells was assessed by determination of their cytotoxicities towards breast non-cancerous cells (MCF-10A). For comparison, cisplatin was added to the cytotoxicity assays.
as §1
(§4) The cells were cultured in 96-well plates and incubated with the tested compound for 24 h and 48 h. All experiments were performed in exponentially growing cultures. The 0.03 M solutions of the compounds in DMSO were appropriately diluted using culture media. The maximal final concentration of DMSO in each well was 0.1%. The cytotoxicity of the compounds was measured by determining cell viability with a colorimetric test based on 3-(4,5-dimethylthiazol-2-yl)-2,5-diphenyltetrazolium bromide (MTT). MTT stock solution was added to each well to a final concentration of 0.5 mg mL^−1 and incubated for 4 h at 37 °C; following formazan crystals were dissolved by the addition of sodium dodecyl sulfate (SDS) solution (10% SDS in 0.001 M HCl). MTT and SDS were added directly to the cell culture. The compound's IC50 values (concentration required to reduce the viability of cells by 50% compared with the control cells) were calculated from the data obtained with the MTT assay.

MCF-7 cells = test: MTT cytotoxicity assay; assay type: cell-based, human; conditions: MTT, read-out: IC50 ± SD
Method: as §3, §1, §4

PC-3 cells = test: MTT cytotoxicity assay; assay type: cell-based, human; conditions: MTT, read-out: IC50 ± SD
Method: as §3, §1, §4

SKOV-3 cells = test: MTT cytotoxicity assay; assay type: cell-based, human; conditions: MTT, read-out: IC50 ± SD
Method: as §3, §1, §4

MCF-10A cells = test: MTT cytotoxicity assay; conditions: for IC50: read-out: IC50 ± SD, MCF-10A (non-cancerous), MTT, * precipitation of the complex
Method: as §3, §1, §4

## Cc1cc(C)[nH]n1.Cc1ccc2cccc([O][Re])c2n1.[C-]#[O+].[C-]#[O+].[C-]#[O+] [complex 7, [Re(CO)3(MeQ)Hdmpz]]
E. coli ATCC25922
  MBC: >512/>512 mg L^−1
  MIC: >512/>512 mg L^−1
P. aeruginosa ATCC27853
  MBC: >512/>512 mg L^−1
  MIC: >512/>512 mg L^−1
S. aureus ATCC29213
  MBC: >512/>512 mg L^−1
  MIC: >512/>512 mg L^−1
E. faecalis ATCC29212
  MBC: > 512 mg/L
  MIC: 128 mg/L
HL-60 cells; HL-60, 24 h
  IC50: 13 ± 1 µM
HL-60 cells; HL-60, 48 h
  IC50: 12 ± 1 µM
MCF-7 cells; MCF-7, 24 h
  IC50: 27 ± 8 µM
MCF-7 cells; MCF-7, 48 h
  IC50: 19 ± 4 µM
PC-3 cells; PC-3, 24 h
  IC50: 16 ± 2 µM
PC-3 cells; PC-3, 48 h
  IC50: 18 ± 4 µM
SKOV-3 cells; SKOV-3, 24 h
  IC50: 29 ± 5 µM
SKOV-3 cells; SKOV-3, 48 h
  IC50: 26 ± 5 µM
MCF-10A cells; MCF-10A cell line culture medium
  solubility in the cytotoxicity assay: precipitated at higher concentrations
MCF-10A cells; 24 h
  IC50: > 25 µM
MCF-10A cells; 48 h
  IC50: > 25 µM

## Clc1ccc([O][Re])c2ncccc12.[C-]#[O+].[C-]#[O+].[C-]#[O+].c1c[nH]cn1 [complex 9, [Re(CO)3(ClQ)Him]]
E. coli ATCC25922
  MBC: 256/256 mg L^−1
  MIC: 256/256 mg L^−1
P. aeruginosa ATCC27853
  MBC: > 512 mg/L
  MIC: 256 mg/L
S. aureus ATCC29213
  MBC: >512/>512 mg L^−1
  MIC: >512/>512 mg L^−1
E. faecalis ATCC29212
  MBC: > 512 mg/L
  MIC: 64 mg/L
HL-60 cells; HL-60, 24 h
  IC50: 11 ± 1 µM
HL-60 cells; HL-60, 48 h
  IC50: 8 ± 2 µM
MCF-7 cells; MCF-7, 24 h
  IC50: 58 ± 7 µM
MCF-7 cells; MCF-7, 48 h
  IC50: 47 ± 6 µM
PC-3 cells; PC-3, 24 h
  IC50: 29 ± 4 µM
PC-3 cells; PC-3, 48 h
  IC50: 22 ± 3 µM
SKOV-3 cells; SKOV-3, 24 h
  IC50: 32 ± 5 µM
SKOV-3 cells; SKOV-3, 48 h
  IC50: 28 ± 4 µM
MCF-10A cells; 24 h
  IC50: 42 ± 2 µM
MCF-10A cells; 48 h
  IC50: 24 ± 1 µM

## Cc1cc(C)[nH]n1.Clc1ccc([O][Re])c2ncccc12.[C-]#[O+].[C-]#[O+].[C-]#[O+] [complex 11, [Re(CO)3(ClQ)Hdmpz]]
E. coli ATCC25922
  MBC: 512/>512 mg L^−1
  MIC: 512/>512 mg L^−1
P. aeruginosa ATCC27853
  MBC: >512/>512 mg L^−1
  MIC: >512/>512 mg L^−1
S. aureus ATCC29213
  MBC: 256 mg/L
  MIC: 64 mg/L
E. faecalis ATCC29212
  MBC: 64/64 mg L^−1
  MIC: 64/64 mg L^−1
HL-60 cells; HL-60, 24 h
  IC50: 5 ± 1 µM
HL-60 cells; HL-60, 48 h
  IC50: 2.8 ± 0.4 µM
MCF-7 cells; MCF-7, 24 h
  IC50: 18 ± 5 µM
MCF-7 cells; MCF-7, 48 h
  IC50: 25 ± 3 µM
PC-3 cells; PC-3, 24 h
  IC50: 18 ± 1 µM
PC-3 cells; PC-3, 48 h
  IC50: 24 ± 4 µM
SKOV-3 cells; SKOV-3, 24 h
  IC50: 40 ± 6 µM
SKOV-3 cells; SKOV-3, 48 h
  IC50: 32 ± 7 µM
MCF-10A cells; 24 h
  IC50: 24 ± 3 µM
MCF-10A cells; 48 h
  IC50: 10 ± 1 µM

## Clc1ccc([O][Re])c2ncccc12.[C-]#[O+].[C-]#[O+].[C-]#[O+].c1ccc(-c2ccn[nH]2)cc1 [complex 12, [Re(CO)3(ClQ)HPhpz]]
E. coli ATCC25922
  MBC: >512/>512 mg L^−1
  MIC: >512/>512 mg L^−1
P. aeruginosa ATCC27853
  MBC: >512/>512 mg L^−1
  MIC: >512/>512 mg L^−1
S. aureus ATCC29213
  MBC: > 512 mg/L
  MIC: 128 mg/L
E. faecalis ATCC29212
  MBC: > 512 mg/L
  MIC: 16 mg/L
HL-60 cells; HL-60, 24 h
  IC50: 2 ± 1 µM
HL-60 cells; HL-60, 48 h
  IC50: 1.5 ± 0.4 µM
MCF-7 cells; MCF-7, 24 h
  IC50: 29 ± 3 µM
MCF-7 cells; MCF-7, 48 h
  IC50: 25 ± 4 µM
PC-3 cells; PC-3, 24 h
  IC50: 41 ± 8 µM
PC-3 cells; PC-3, 48 h
  IC50: 23 ± 4 µM
SKOV-3 cells; SKOV-3, 24 h
  IC50: > 100 µM
SKOV-3 cells; SKOV-3, 48 h
  IC50: 78 ± 12 µM
MCF-10A cells; 24 h
  IC50: 34 ± 3 µM
MCF-10A cells; 48 h
  IC50: 14 ± 1 µM

## [Re(CO)3(ClQ)MeHim]·CH3CN [complex 10]
E. coli ATCC25922
  MBC: 512/>512 mg L^−1
  MIC: 512/>512 mg L^−1
P. aeruginosa ATCC27853
  MBC: 512/>512 mg L^−1
  MIC: 512/>512 mg L^−1
S. aureus ATCC29213
  MBC: > 512 mg/L
  MIC: 64 mg/L
E. faecalis ATCC29212
  MBC: > 512 mg/L
  MIC: 4 mg/L
HL-60 cells; HL-60, 24 h
  IC50: 5 ± 1 µM
HL-60 cells; HL-60, 48 h
  IC50: 7 ± 1 µM
MCF-7 cells; MCF-7, 24 h
  IC50: 54 ± 4 µM
MCF-7 cells; MCF-7, 48 h
  IC50: 53 ± 4 µM
PC-3 cells; PC-3, 24 h
  IC50: 23 ± 2 µM
PC-3 cells; PC-3, 48 h
  IC50: 23 ± 2 µM
SKOV-3 cells; SKOV-3, 24 h
  IC50: 34 ± 5 µM
SKOV-3 cells; SKOV-3, 48 h
  IC50: 32 ± 7 µM
MCF-10A cells; 24 h
  IC50: 15 ± 1 µM
MCF-10A cells; 48 h
  IC50: 12 ± 1 µM
